According to patent US6107069A, “Recombinant kynurenine-3-hydroxylase enzyme and process for its preparation” (priority 1996, dated 2000):

Key:
rat kyn-3-OHase = target: T1, rat kyn-3-OHase (Rattus norvegicus, UniProt O88867); test: Inhibition of rat kyn-3-OHase expressed in Xenopus laevis oocytes; type: biochemical; settings: homogenates of oocytes injected with the clone, 50 μM L-kyn
T1 construct: encodes a deduced protein of 478 amino acid residues; expressed in transfected cells; host or cells: Xenopus laevis oocytes injected with cRNA of the cloned rat kidney cDNA (homogenate)
Excerpt: Kyn-3-OHase activity was quantified by the conversion of L-kyn to 3-OH-Kyn.

kyn-3-OHase = settings: systemic administration; cited from earlier work
brain [1] = settings: peripherally formed; cited from earlier work
glycine modulatory site = settings: cited from earlier work
brain [2] = settings: cited from earlier work
rats = settings: administration to rats; cited from earlier work
[3] = tested on: excitatory amino acid receptor; settings: sites normally activated by glutamate and aspartate; cited from earlier work

T1 sequence (O88867 whole entry): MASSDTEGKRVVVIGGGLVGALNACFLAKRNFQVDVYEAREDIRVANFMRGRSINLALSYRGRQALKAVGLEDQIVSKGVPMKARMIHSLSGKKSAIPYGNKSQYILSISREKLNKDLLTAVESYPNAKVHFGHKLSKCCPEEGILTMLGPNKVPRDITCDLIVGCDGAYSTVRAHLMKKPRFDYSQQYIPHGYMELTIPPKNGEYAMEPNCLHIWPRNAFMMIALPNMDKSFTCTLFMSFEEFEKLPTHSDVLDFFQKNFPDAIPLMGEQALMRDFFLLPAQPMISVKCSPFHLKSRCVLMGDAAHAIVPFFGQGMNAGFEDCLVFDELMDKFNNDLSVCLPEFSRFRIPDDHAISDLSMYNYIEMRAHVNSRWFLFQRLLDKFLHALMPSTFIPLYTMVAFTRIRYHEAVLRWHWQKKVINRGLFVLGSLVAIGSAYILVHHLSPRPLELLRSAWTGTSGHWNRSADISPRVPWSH

NC(CC(=O)c1ccc(Cl)c(Cl)c1)C(=O)O (racemic) [FCE 28833A, (R,S)-3,4-dichlorobenzoylalanine]
IC50 (rat kyn-3-OHase): 0.29 µM
endogenous KYNA levels in rat brain tissue (kyn-3-OHase): dose-dependent elevation
endogenous kynurenine levels in rat brain tissue (kyn-3-OHase): dose-dependent elevation

Nc1c(O)cccc1C(=O)O [3-hydroxyanthranilic acid]
entry into the brain (brain [1]): enters the brain very poorly

O=C(O)c1cc(=O)c2ccccc2[nH]1 [KYNA, kynurenic acid]
affinity to the glycine modulatory site (glycine modulatory site): particularly high affinity
excitatory amino acid receptor antagonism (glycine modulatory site): effective excitatory amino acid receptor antagonist
properties when applied directly into the brain (brain [2]): anticonvulsant and neuroprotective properties

O=C(O)c1cccnc1C(=O)O [QUIN, quinolinic acid]
convulsions (rats): caused convulsions
activity at excitatory amino acid receptor sites [3]: agonist
